Experimental findings from US11753386B2, “Processes for preparing a MDM2 inhibitor” (Amgen, Inc., priority 2018, dated 2023) are described below.

The structures appear in SMILES notation.

Common to all, as to assay type: physicochemical
Data set [1] can be described thus: Solubility in acetonitrile/water (9/1 volume ratio). Conditions: organic solvent or mixture, 10° C.
Data set [2] can be described thus: Supernatant concentration at end of crystallization. Particulars: 20° C. The procedure:
Cooling to 20° C. in 2 hours prompts another 60% of the material to crystallize. Four volumes of heptane are subsequently added to lower the supernatant concentration to approximately 5 mg/mL in preparation for batch filtration.
A curve showing solubility values at different time points in the crystallization process is represented in FIG. 16. […] One volume of water is subsequently added to lower the supernatant concentration to approximately 5 mg/mL in preparation for a rapid batch filtration. Three water washings (3×10 volumes) were conducted to minimize the presence of residual acetic acid in the isolated material.

Data set [3] can be described thus: Particle size distribution pre and post dry-milling.
Data set [4] is described as follows: Equilibrium solubility measurements for DHO in various solvents. Particulars: thermodynamic from solid, 20° C. How it is done: Equilibrium solubility measurements were gathered for DHO in various solvents. It was observed that all values obtained were above 20 mg/mL at 20° C. (including heptane) except for water (<0.1 mg/mL), which was thus selected as an anti-solvent. […] Using this protocol, crystalline DHO was isolated in 88% yield from DLAC in a >98 LC area % (Scheme 9).

The mark [5] stands for this setting: milled (Pallman Universal Mill).

As a reminder, the solubility is how much of the substance goes into solution per volume. Regarding `CC(C)[C@@H](CS(=O)(=O)C(C)C)N1C(=O)[C@@](C)(CC=O)C[C@H](c2cccc(Cl)c2)C1c1ccc(Cl)cc1` (stereo partly drawn) [ALD], the solubility in data set [1] is 21 mg/mL.

For `CC(C)[C@@H](CS(=O)(=O)C(C)C)N1C(=O)[C@@](C)(CC(=O)O)CC(c2cccc(Cl)c2)C1c1ccc(Cl)cc1` (stereo partly drawn) [Compound 232-DAB], the Supernatant concentration result in data set [2] (isopropyl acetate (4 volumes) / heptane (4 volumes)) is recorded as “approximately 5 mg/mL”.

As to `CC(C)[C@@H](CS(=O)(=O)C(C)C)N1C(=O)[C@@](C)(CC(=O)O)C[C@H](c2cccc(Cl)c2)[C@H]1c1ccc(Cl)cc1` [Compound A, 2-((3R,5R,6S)-5-(3-chlorophenyl)-6-(4-chlorophenyl)-1-((S)-1-(isopropylsulfonyl)-3-methylbutan-2-yl)-3-methyl-2-oxopiperidin-3-yl)acetic acid], in data set [2] (acetic acid (6.6 volumes) / water (4.4 + 1 volumes)), the Supernatant concentration entry is reported as “approximately 5 mg/mL”. In data set [3] (setting [5]), this molecule showed a d10 of 3.2 μm, a d50 of 19.1 μm and a d90 of 43.7 μm. In data set [3] (unmilled), this molecule yielded a d10 of 14.6 μm, a d50 of 42.5 μm and a d90 of 102 μm.

As a reminder, the thermodynamic solubility is solubility found after equilibrating the solid with the medium. For the molecule `C=CC[C@@](C)(C[C@H](c1cccc(Cl)c1)[C@@H](O)c1ccc(Cl)cc1)C1=N[C@@H](C(C)C)CO1` [DHO, (1R,2R,4S)-2-(3-chlorophenyl)-1-(4-chlorophenyl)-4-((S)-4-isopropyl-4,5-dihydrooxazol-2-yl)-4-methylhept-6-en-1-ol], the solubility (thermodynamic) is > 20 mg/mL in data set [4] (organic solvent or mixture, various solvents (including heptane) except water) and < 0.1 mg/mL in data set [4] (water).

On to `C=CC[C@@]1(C)C[C@H](c2cccc(Cl)c2)[C@@H](c2ccc(Cl)cc2)N([C@H](CS(=O)(=O)C(C)C)C(C)C)C1=O` [SUL, (3S,5R,6S)-3-allyl-5-(3-chlorophenyl)-6-(4-chlorophenyl)-1-((S)-1-(isopropylsulfonyl)-3-methylbutan-2-yl)-3-methylpiperidin-2-one], for which the solubility in data set [1] was determined as 25 mg/mL.
